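Briefly, cells in 96-well plates were exposed to five compound concentrations for 48 h, and endpoints were estimated by linear interpolation. At the GI50, growth is halved.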 Active and inactive are the calls of the source. Cut-off read from the data, not from the text of the source: active = GI50 up to about 1.1 µM and inactive = higher.
Key:
Assay in all cases: NCI anticancer screen, dose series, 48 h
A498 = system: A498
A549 = system: A549
CAKI-1 = system: CAKI-1
CCRF-CEM = system: CCRF-CEM
COLO 205 = system: COLO 205
DLD-1 = system: DLD-1
DMS-114 = system: DMS-114
DMS-273 = system: DMS-273
EKVX = system: EKVX
HCC 2998 = system: HCC 2998
HCT-116 = system: HCT-116
HCT-15 = system: HCT-15
HL-60 = system: HL-60
HOP-18 = system: HOP-18
HOP-62 = system: HOP-62
HOP-92 = system: HOP-92
HT-29 = system: HT-29
IGROV-1 = system: IGROV-1
K562 = system: K562
KM-20L2 = system: KM-20L2
KM12 = system: KM12
LOX IMVI = system: LOX IMVI
M19-MEL = system: M19-MEL
MCF7 = system: MCF7
MOLT-4 = system: MOLT-4
Malme-3M = system: Malme-3M
NCI-H226 = system: NCI-H226
NCI-H23 = system: NCI-H23
NCI-H460 = system: NCI-H460
NCI-H522 = system: NCI-H522
NCI/ADR-RES = system: NCI/ADR-RES
OVCAR-3 = system: OVCAR-3
OVCAR-4 = system: OVCAR-4
OVCAR-5 = system: OVCAR-5
OVCAR-8 = system: OVCAR-8
RPMI-8226 = system: RPMI-8226
RXF 393 = system: RXF 393
SF-268 = system: SF-268
SF-295 = system: SF-295
SF-539 = system: SF-539
SK-MEL-28 = system: SK-MEL-28
SK-MEL-2 = system: SK-MEL-2
SK-MEL-5 = system: SK-MEL-5
SK-OV-3 = system: SK-OV-3
SN12C = system: SN12C
SNB-19 = system: SNB-19
SNB-75 = system: SNB-75
SNB-78 = system: SNB-78
SW-620 = system: SW-620
U-251 = system: U-251
UACC-257 = system: UACC-257
UACC-62 = system: UACC-62
UO-31 = system: UO-31
XF498 = system: XF498
786-0 = system: 786-0
ACHN = system: ACHN
LXFL 529 = system: LXFL 529
M14 = system: M14
TK-10 = system: TK-10
SR = system: SR

c1ccc(C(c2ccccc2)[P+](c2ccccc2)(c2ccccc2)c2ccccc2)cc1
GI50 (A498): 2.32 µM (inactive)
GI50 (A549): 0.422 µM (active)
GI50 (CAKI-1): 2.69 µM (inactive)
GI50 (CCRF-CEM): 0.317 µM (active)
GI50 (COLO 205): 0.289 µM (active)
GI50 (DLD-1): 2.1 µM (inactive)
GI50 (DMS-114): 0.324 µM (active)
GI50 (DMS-273): 0.349 µM (active)
GI50 (EKVX): 4.7 µM (inactive)
GI50 (HCC 2998): 0.365 µM (active)
GI50 (HCT-116): 0.326 µM (active)
GI50 (HCT-15): 4.62 µM
GI50 (HL-60): 0.182 µM (active)
GI50 (HOP-18): 0.369 µM (active)
GI50 (HOP-62): 0.867 µM (active)
GI50 (HOP-92): 0.543 µM (active)
GI50 (HT-29): 0.332 µM (active)
GI50 (IGROV-1): 0.394 µM (active)
GI50 (K562): 0.427 µM (active)
GI50 (KM-20L2): 0.374 µM (active)
GI50 (KM12): 0.241 µM (active)
GI50 (LOX IMVI): 0.265 µM (active)
GI50 (M19-MEL): 0.397 µM (active)
GI50 (MCF7): 0.449 µM (active)
GI50 (MOLT-4): 0.419 µM (active)
GI50 (Malme-3M): 0.726 µM (active)
GI50 (NCI-H226): 0.684 µM (active)
GI50 (NCI-H23): 0.45 µM (active)
GI50 (NCI-H460): 0.456 µM (active)
GI50 (NCI-H522): 0.223 µM (active)
GI50 (NCI/ADR-RES): 35.2 µM (inactive)
GI50 (OVCAR-3): 0.336 µM (active)
GI50 (OVCAR-4): 0.479 µM (active)
GI50 (OVCAR-5): 0.933 µM (active)
GI50 (OVCAR-8): 0.542 µM (active)
GI50 (RPMI-8226): 0.226 µM (active)
GI50 (RXF 393): 2.24 µM (inactive)
GI50 (SF-268): 0.556 µM (active)
GI50 (SF-295): 1.7 µM (inactive)
GI50 (SF-539): 1.27 µM (inactive)
GI50 (SK-MEL-28): 0.446 µM (active)
GI50 (SK-MEL-2): 0.305 µM (active)
GI50 (SK-MEL-5): 0.37 µM (active)
GI50 (SK-OV-3): 0.596 µM (active)
GI50 (SN12C): 0.592 µM (active)
GI50 (SNB-19): 0.526 µM (active)
GI50 (SNB-75): 0.467 µM (active)
GI50 (SNB-78): 0.612 µM (active)
GI50 (SW-620): 0.466 µM (active)
GI50 (U-251): 0.431 µM (active)
GI50 (UACC-257): 0.348 µM (active)
GI50 (UACC-62): 0.332 µM (active)
GI50 (UO-31): 0.951 µM (active)
GI50 (XF498): 0.214 µM (active)

O=C1C(=O)N(c2ccc(Cl)cc2)C(=O)C(=O)C1c1nc2ccccc2s1
GI50 (786-0): > 100 µM (inactive)
GI50 (ACHN): 89.3 µM (inactive)
GI50 (CAKI-1): > 100 µM (inactive)
GI50 (COLO 205): > 100 µM (inactive)
GI50 (DMS-114): > 100 µM (inactive)
GI50 (DMS-273): > 100 µM (inactive)
GI50 (EKVX): > 100 µM (inactive)
GI50 (HCC 2998): > 100 µM (inactive)
GI50 (HCT-116): > 100 µM (inactive)
GI50 (HCT-15): > 100 µM
GI50 (HOP-18): > 100 µM (inactive)
GI50 (HOP-62): 42.7 µM (inactive)
GI50 (HOP-92): > 100 µM (inactive)
GI50 (HT-29): > 100 µM (inactive)
GI50 (IGROV-1): 71 µM (inactive)
GI50 (K562): > 100 µM (inactive)
GI50 (KM-20L2): > 100 µM (inactive)
GI50 (KM12): > 100 µM (inactive)
GI50 (LOX IMVI): > 100 µM (inactive)
GI50 (LXFL 529): > 100 µM (inactive)
GI50 (M14): > 100 µM (inactive)
GI50 (M19-MEL): > 100 µM (inactive)
GI50 (MOLT-4): 21.9 µM (inactive)
GI50 (Malme-3M): > 100 µM (inactive)
GI50 (NCI-H226): > 100 µM (inactive)
GI50 (NCI-H23): > 100 µM (inactive)
GI50 (NCI-H460): > 100 µM (inactive)
GI50 (NCI-H522): > 100 µM (inactive)
GI50 (OVCAR-3): > 100 µM (inactive)
GI50 (OVCAR-4): > 100 µM (inactive)
GI50 (OVCAR-5): > 100 µM (inactive)
GI50 (OVCAR-8): > 100 µM (inactive)
GI50 (RPMI-8226): > 100 µM (inactive)
GI50 (RXF 393): > 100 µM (inactive)
GI50 (SF-268): > 100 µM (inactive)
GI50 (SF-295): > 100 µM (inactive)
GI50 (SF-539): 74.3 µM (inactive)
GI50 (SK-MEL-28): > 100 µM (inactive)
GI50 (SK-MEL-2): > 100 µM (inactive)
GI50 (SK-MEL-5): > 100 µM (inactive)
GI50 (SK-OV-3): > 100 µM (inactive)
GI50 (SN12C): > 100 µM (inactive)
GI50 (SNB-19): > 100 µM (inactive)
GI50 (SNB-75): > 100 µM (inactive)
GI50 (SNB-78): > 100 µM (inactive)
GI50 (SW-620): > 100 µM (inactive)
GI50 (TK-10): > 100 µM (inactive)
GI50 (U-251): > 100 µM (inactive)
GI50 (UACC-257): > 100 µM (inactive)
GI50 (UACC-62): > 100 µM (inactive)
GI50 (UO-31): > 100 µM (inactive)
GI50 (XF498): > 100 µM (inactive)

O=C(CN(Cc1ccccc1)Cc1ccccc1)N1CCc2c([nH]c3ccccc23)C1c1cccnc1 (centres undefined)
GI50 (786-0): 5.87 µM (inactive)
GI50 (A498): 16.7 µM (inactive)
GI50 (A549): 4.59 µM (inactive)
GI50 (ACHN): 7.64 µM (inactive)
GI50 (CAKI-1): 4.85 µM (inactive)
GI50 (CCRF-CEM): 4.11 µM (inactive)
GI50 (DLD-1): 6.4 µM (inactive)
GI50 (DMS-114): 4.35 µM (inactive)
GI50 (DMS-273): 4.74 µM (inactive)
GI50 (EKVX): 7.71 µM (inactive)
GI50 (HCC 2998): 13.2 µM (inactive)
GI50 (HCT-116): 3.74 µM (inactive)
GI50 (HCT-15): 5.64 µM
GI50 (HL-60): 1.71 µM (inactive)
GI50 (HOP-18): 46.5 µM (inactive)
GI50 (HOP-62): 39 µM (inactive)
GI50 (HOP-92): 2.79 µM (inactive)
GI50 (HT-29): 5.57 µM (inactive)
GI50 (IGROV-1): 29.7 µM (inactive)
GI50 (K562): 3.17 µM (inactive)
GI50 (KM-20L2): 6.92 µM (inactive)
GI50 (KM12): 4.14 µM (inactive)
GI50 (LOX IMVI): 7.73 µM (inactive)
GI50 (LXFL 529): 6.67 µM (inactive)
GI50 (M14): 3.66 µM (inactive)
GI50 (M19-MEL): 5.98 µM (inactive)
GI50 (MOLT-4): 2.26 µM (inactive)
GI50 (NCI-H23): 5.41 µM (inactive)
GI50 (NCI-H460): 5.58 µM (inactive)
GI50 (NCI-H522): 4.8 µM (inactive)
GI50 (OVCAR-3): 5.82 µM (inactive)
GI50 (OVCAR-4): 3.99 µM (inactive)
GI50 (OVCAR-5): 7.38 µM (inactive)
GI50 (OVCAR-8): 6.1 µM (inactive)
GI50 (RPMI-8226): 1.86 µM (inactive)
GI50 (SF-268): 9.51 µM (inactive)
GI50 (SF-295): 6.64 µM (inactive)
GI50 (SF-539): 12.2 µM (inactive)
GI50 (SK-MEL-28): 21.2 µM (inactive)
GI50 (SK-MEL-5): 7.23 µM (inactive)
GI50 (SK-OV-3): 80.9 µM (inactive)
GI50 (SN12C): 2.71 µM (inactive)
GI50 (SNB-19): 19.5 µM (inactive)
GI50 (SNB-75): 7.36 µM (inactive)
GI50 (SNB-78): 15.8 µM (inactive)
GI50 (SR): 5.28 µM (inactive)
GI50 (SW-620): 5.65 µM (inactive)
GI50 (TK-10): 27.5 µM (inactive)
GI50 (U-251): 6.37 µM (inactive)
GI50 (UACC-257): 13.2 µM (inactive)
GI50 (UACC-62): 11.1 µM (inactive)
GI50 (UO-31): 2.63 µM (inactive)
GI50 (XF498): 13.9 µM (inactive)
